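Where inhibition never reached the appropriate level, the endpoint shown equals the highest concentration tested. Otherwise, values were interpolated linearly from a five-concentration, 48-hour dose response in 96-well plates. The concentration for 50% growth inhibition is given as GI50.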 Calls of active or inactive are those of the source. Cut-off read from the data, not from the text of the source: active = GI50 up to about 1.1 µM and inactive = higher.
What was measured:
Experiment in all cases: DTP human tumour cell line panel, 48 h
A498 = system: A498
A549 = system: A549
BT-549 = system: BT-549
CCRF-CEM = system: CCRF-CEM
HCT-15 = system: HCT-15
HOP-62 = system: HOP-62
Hs-578T = system: Hs-578T
KM12 = system: KM12
MDA-N = system: MDA-N
OVCAR-4 = system: OVCAR-4
OVCAR-5 = system: OVCAR-5
RXF 393 = system: RXF 393
SF-539 = system: SF-539
SN12C = system: SN12C
SNB-19 = system: SNB-19
SNB-75 = system: SNB-75
TK-10 = system: TK-10
U-251 = system: U-251
UACC-62 = system: UACC-62

Structure (SMILES)	GI50 (A498)	GI50 (A549)	GI50 (BT-549)	GI50 (CCRF-CEM)	GI50 (HCT-15) [µM]	GI50 (HOP-62)	GI50 (Hs-578T)	GI50 (KM12)	GI50 (MDA-N)	GI50 (OVCAR-4)	GI50 (OVCAR-5)	GI50 (RXF 393)	GI50 (SF-539)	GI50 (SN12C)	GI50 (SNB-19)	GI50 (SNB-75)	GI50 (TK-10)	GI50 (U-251)	GI50 (UACC-62)
NC(=S)N/N=C1\C(=O)Nc2c(Cl)cc(Cl)cc21	32.4 µM (inactive)	31.3 µM (inactive)	21 µM (inactive)	23.5 µM (inactive)	24.8	13 µM (inactive)	24 µM (inactive)	18.9 µM (inactive)	17.4 µM (inactive)	34 µM (inactive)	81.7 µM (inactive)	16 µM (inactive)	18.1 µM (inactive)	19.5 µM (inactive)	31.3 µM (inactive)	19 µM (inactive)	73.1 µM (inactive)	19.5 µM (inactive)	17.3 µM (inactive)
COc1ccc(/C=C/c2cc(=O)cc(/C=C/c3ccc(OC)c(O)c3)o2)cc1O	3.53 µM (inactive)	3.14 µM (inactive)	2.65 µM (inactive)	2.82 µM (inactive)	2.29	3.41 µM (inactive)	3.5 µM (inactive)	1.99 µM (inactive)	1.44 µM (inactive)	2.81 µM (inactive)	9.4 µM (inactive)	1.11 µM (active)	1.98 µM (inactive)	3.17 µM (inactive)	4.84 µM (inactive)	3.82 µM (inactive)	4.26 µM (inactive)	1.94 µM (inactive)	1.75 µM (inactive)
COC(=O)C(Cc1c[nH]c2ccccc12)NC(=O)c1ccc(-c2ccc(Cl)cc2Cl)o1 (configuration not stated)	15.5 µM (inactive)	34.9 µM (inactive)	> 100 µM (inactive)	20.6 µM (inactive)	52.7	45.8 µM (inactive)	> 100 µM (inactive)	60 µM (inactive)	48.2 µM (inactive)	38.3 µM (inactive)	> 100 µM (inactive)	28.5 µM (inactive)	21.7 µM (inactive)	26.4 µM (inactive)	> 100 µM (inactive)	35.5 µM (inactive)	63.5 µM (inactive)	42.7 µM (inactive)	43.3 µM (inactive)
CCc1nc(N)nc(N)c1-c1ccc(Cl)c(/N=C/N(C)C)c1	86.9 µM (inactive)	15.3 µM (inactive)	> 81.7 µM (inactive)	30.3 µM (inactive)	10.4	63.7 µM (inactive)	> 100 µM (inactive)	61.7 µM (inactive)	45.9 µM (inactive)	72.3 µM (inactive)	> 100 µM (inactive)	> 89.3 µM (inactive)	45.3 µM (inactive)	91.4 µM (inactive)	58.9 µM (inactive)	> 96.4 µM (inactive)	> 100 µM (inactive)	54.6 µM (inactive)	35.8 µM (inactive)
CCCOC(=O)c1cc(O)c(O)c(O)c1 [PROPYL GALLATE]	> 100 µM (inactive)	27.2 µM (inactive)	43.8 µM (inactive)	> 100 µM (inactive)	20.7	33.8 µM (inactive)	17.5 µM (inactive)	20.5 µM (inactive)	14.7 µM (inactive)	> 100 µM (inactive)	49.9 µM (inactive)	19.3 µM (inactive)	10.9 µM (inactive)	22.4 µM (inactive)	57.4 µM (inactive)	40.3 µM (inactive)	> 100 µM (inactive)	56.4 µM (inactive)	24.7 µM (inactive)
N#C/C(=C1C=C(Br)/C(=N\O)C=C\1Cl)c1cccc2ccccc12	9.02 µM (inactive)	9.84 µM (inactive)	7.43 µM (inactive)	2.62 µM (inactive)	4.73	10.3 µM (inactive)	3.55 µM (inactive)	3.92 µM (inactive)	1.61 µM (inactive)	2.49 µM (inactive)	3.55 µM (inactive)	1.37 µM (inactive)	1.96 µM (inactive)	8.49 µM (inactive)	10.5 µM (inactive)	0.121 µM (active)	11.5 µM (inactive)	2.96 µM (inactive)	4.12 µM (inactive)
O=C1c2ccccc2-[n+]2ccc3c([nH]c4ccccc43)c21 [FASCAPLYSIN CHLORIDE]	1.58 µM (inactive)	0.565 µM (active)	2.26 µM (inactive)	0.337 µM (active)	0.851	1.14 µM (inactive)	1.24 µM (inactive)	0.18 µM (active)	0.191 µM (active)	0.628 µM (active)	0.48 µM (active)	0.384 µM (active)	0.349 µM (active)	0.231 µM (active)	0.615 µM (active)	0.452 µM (active)	1.14 µM (inactive)	0.274 µM (active)	0.242 µM (active)
CCCCCCCCCC(=O)N[C@@H](c1ccco1)[C@@H](O)C(=O)O[C@H]1C[C@@]2(O)[C@@H](OC(=O)c3ccccc3)[C@@H]3[C@]4(OC(C)=O)CO[C@@H]4C[C@H](O)[C@@]3(C)C(=O)[C@H](OC(C)=O)C(=C1C)C2(C)C	0.082 µM (active)	0.0318 µM (active)	0.0419 µM (active)	0.0178 µM (active)	0.752	0.0593 µM (active)	0.00865 µM (active)	0.00879 µM (active)	< 0.005 µM (active)	1.34 µM (inactive)	0.0196 µM (active)	0.043 µM (active)	0.0228 µM (active)	0.0407 µM (active)	0.0442 µM (active)	0.989 µM (active)	0.468 µM (active)	< 0.0241 µM (active)	0.0467 µM (active)
O=C1c2cccc3cccc(c23)C(=O)N1CCCNCCCNCCCCNCCCNCCCN1C(=O)c2cccc3cccc(c23)C1=O	6.38 µM (inactive)	2.67 µM (inactive)	3.74 µM (inactive)	0.479 µM (active)	12.8	3.79 µM (inactive)	1.68 µM (inactive)	2.74 µM (inactive)	2.36 µM (inactive)	2.83 µM (inactive)	6.14 µM (inactive)	3.34 µM (inactive)	3.52 µM (inactive)	3.44 µM (inactive)	2.28 µM (inactive)	2.52 µM (inactive)	11.6 µM (inactive)	1.84 µM (inactive)	2.82 µM (inactive)
CC[N+]1(C)CCC(O)(c2ccc(Cl)c(Cl)c2)C(C(=O)c2ccc(Cl)c(Cl)c2)C1 (configuration not stated)	> 10 µM (inactive)	> 10 µM (inactive)	> 10 µM (inactive)	2.61 µM (inactive)	> 10	> 10 µM (inactive)	> 10 µM (inactive)	> 10 µM (inactive)	> 10 µM (inactive)	> 10 µM (inactive)	> 10 µM (inactive)	> 10 µM (inactive)	> 10 µM (inactive)	> 10 µM (inactive)	> 10 µM (inactive)	> 10 µM (inactive)	> 10 µM (inactive)	> 10 µM (inactive)	–
Cc1cc(C)c2c(n1)S(=O)(=O)N(CCCN1CCN(c3cccc(C(F)(F)F)c3)CC1)C(C(=O)c1ccccc1)=C2O	8.57 µM (inactive)	4.55 µM (inactive)	16 µM (inactive)	5.19 µM (inactive)	4.62	8.38 µM (inactive)	17.6 µM (inactive)	5.02 µM (inactive)	5.5 µM (inactive)	4.66 µM (inactive)	7.36 µM (inactive)	5.73 µM (inactive)	10.1 µM (inactive)	4.55 µM (inactive)	5.53 µM (inactive)	3.48 µM (inactive)	10.5 µM (inactive)	5.4 µM (inactive)	10.2 µM (inactive)
O=[N+]([O-])c1cc(Cl)cc2c1nc(NCCO)c1ccccc12	10.3 µM (inactive)	2.95 µM (inactive)	15.4 µM (inactive)	16.7 µM (inactive)	4.36	7.24 µM (inactive)	28.9 µM (inactive)	9.53 µM (inactive)	4.62 µM (inactive)	13.5 µM (inactive)	9.18 µM (inactive)	6.46 µM (inactive)	20.9 µM (inactive)	6.17 µM (inactive)	16.1 µM (inactive)	20.4 µM (inactive)	10.8 µM (inactive)	6.64 µM (inactive)	10.3 µM (inactive)
CC(C)(C)OC(=O)CN1CCNCCNCC1	> 100 µM (inactive)	> 100 µM (inactive)	> 100 µM (inactive)	> 100 µM (inactive)	> 100	> 100 µM (inactive)	> 100 µM (inactive)	> 100 µM (inactive)	> 100 µM (inactive)	> 100 µM (inactive)	> 100 µM (inactive)	> 100 µM (inactive)	> 100 µM (inactive)	> 100 µM (inactive)	> 100 µM (inactive)	> 100 µM (inactive)	> 100 µM (inactive)	> 100 µM (inactive)	> 100 µM (inactive)
c1csc(-c2ccc(-c3cccs3)c3nsnc23)c1	> 100 µM (inactive)	33.9 µM (inactive)	> 52.7 µM (inactive)	8.32 µM (inactive)	0.261	35.6 µM (inactive)	16.5 µM (inactive)	0.327 µM (active)	17.9 µM (inactive)	0.608 µM (active)	–	> 22 µM (inactive)	24.4 µM (inactive)	> 60.3 µM (inactive)	> 90.8 µM (inactive)	19.7 µM (inactive)	7.64 µM (inactive)	30.2 µM (inactive)	> 100 µM (inactive)
COC(=O)c1cc(C)ccc1CC(Cc1cccc(C)c1)C(=O)OC (configuration not stated)	> 100 µM (inactive)	> 100 µM (inactive)	> 100 µM (inactive)	46.2 µM (inactive)	> 100	> 100 µM (inactive)	> 100 µM (inactive)	> 100 µM (inactive)	> 100 µM (inactive)	> 100 µM (inactive)	17.3 µM (inactive)	29.2 µM (inactive)	> 100 µM (inactive)	> 100 µM (inactive)	> 100 µM (inactive)	39.5 µM (inactive)	> 100 µM (inactive)	> 100 µM (inactive)	–

Reference: ChEMBL document CHEMBL1201862, “PubChem BioAssay data set” (2004)
